In patent publication US5770625A, “Butyryl-tyrosinyl spermine, analogs thereof and methods of preparing and using same” (priority 1994, dated 1998):
“Also recorded” adds a separate entry of the source. Like-named read-outs stand apart in the source and are kept apart here.

System: postsynaptic QUIS-R of locust leg muscle
Assay: Antagonism of neurally-evoked twitch contraction of locust retractor unguis nerve-muscle preparation
Set-up: species or system Schistocerca gregaria
Conditions: for IC50: read-out: IC50
Excerpt: Electrophysiological studies. The metathoracic retractor unguis nerve-muscle preparation of the locust Schistocerca gregaria was dissected and mounted in a small Perspex bath as described previously (21). The pharmacological activity on the locust nerve muscle preparation, using reduction in neurally evoked twitch amplitude as the measure of activity. Ten fractions were pharmacologically active. […] Further purification of this fraction by reverse-phase HPLC gave four peaks (FIG. 2B), the most pharmacologically was in the major peak (hatched FIG. 2B) . This fraction gave 1.1 mg of toxin as amorphous powder.
The retractor unguis muscle and its nerve were dissected from the metathoracic legs of adult, female locusts (Schistocerca gregaria) and mounted in a Perspex perfusion chamber as described by Usherwood and Machili (21) and Bateman, et al. (14). The muscle was stretched to maximal body length and attached at its tendon or apodeme to a Grass FT 10-strain gauge by a short length of nylon thread. The volume of the muscle bath was about 0.5 ml and its contents could be exchanged within 1 sec. The preparation was perfused continuously at the rate of 5-10 ml min^-1 (except during the application of toxin (see below)) with standard locust saline of the following composition (mM): NaCl, 180; KCl, 10; CaCl2, 2; Hepes, 10; buffered to pH 6.8. The retractor unguis muscle is innervated by two excitatory motoneurons (30) and an inhibitory motoneuron (19,32), but the influence of the latter on the responsiveness of the muscle is slight. Maximal stimulation of the retractor unguis nerve at 0.2 Hz produced a series of twitch contractions of constant amplitude, which were maintained for many hours in good preparations. The test compounds were kept at -20° C. They were dissolved in locust saline on the day of the assay and tested at room temperature. The compounds were applied by pipette to a nerve-muscle preparation such that the contents of the perfusion bath were completely replaced by the test solution. Exposure to the test compound lasted 20 min. Because of the limited availability of some of the compounds, the preparation was not perfused during this period. However, the amplitude of the retractor unguis muscle twitch rarely changed by more than 5-10% over a 20 minute period. During application of the test solutions the stimulation frequency was raised to 0.6 Hz for brief periods to test for stimulus frequency-dependent effects on twitch amplitude (31,37). Dose-inhibition data were obtained by testing the effects, on single retractor unguis muscle preparations, of a range of concentrations of the test compounds. Each concentration of the respective samples was tested at least thee times, and each compound was assayed usually over a 100-fold concentration range (a total of 7-10 concentrations). The standard deviations for twitch inhibition for any given concentration of a toxin rarely exceed 10%. Those compounds for which the deviation was greater than this are identified in Tables 1-7. There was some variation in the potency of PhTX-343 and the test compounds between nerve-muscle preparations. In order to compensate for this, the following procedure was adopted: PhTX-343 was assayed at a variety of concentrations on eight retractor unguis nerve-muscle preparations to give a cumulative dose-inhibition relationship for this toxin. The concentration of PhTX-343 which reduced the twitch contraction by 50% (IC50) was then determined by fitting a curve to the data using the following equation: [formula] where: [T]= toxin concentration, I= % inhibition, Imax =maximum inhibition= 100% and n' represents the Hill slope coefficient. […] The ratio of the actual reduction in twitch amplitude obtained with this single concentration of PhTX-343 and the 50% reduction that was anticipated from the cumulative dose-inhibition relationship for this toxin, was then used as a factor to normalize the data for the test compound. […]

[1] = Table 1, region A modifications, 20 min exposure, normalized with PhTX-343, ** SD < 30%
[2] = Table 1, relative to PhTX-343 = 1.0
[3] = Table 2, region B modifications, * SD < 20%
[4] = Table 2, relative to PhTX-343 = 1.0
[5] = Table 4, terminal amino group modifications, * SD < 20%
[6] = Table 4, relative to PhTX-343 = 1.0
[7] = Table 3, region C modifications
[8] = Table 3, relative to PhTX-343 = 1.0
[9] = Table 5, modifications to more than one region
[10] = Table 6, bis analogues of PhTX-343

Compound: CCCC(=O)N[C@@H](Cc1ccc(O)cc1)C(=O)NCCCNCCCCNCCCN [drawing 21]
- IC50 [1]: 23 µM
- Relative Potency [2]: 1.0

Compound: CCCC(=O)NCC(=O)NCCCNCCCCNCCCN [drawing 38]
- IC50 [3]: 130 µM
- Relative Potency [4]: 0.2

Compound: CCCC(=O)N[C@@H](Cc1ccc(O)cc1)C(=O)NCCCNCCCCNCCCN [drawing 57]
- IC50 [5]: 23 µM
- Relative Potency [6]: 1.0

Compound: CCCCCCCCCC(=O)N[C@@H](Cc1ccc(O)cc1)C(=O)NCCCNCCCCNCCCN [Compound 20, C10-PhTX-343]
- potency compared with PhTX-343 or other analogues (in words): successive increases in potency
- IC50 [7]: 1.4 µM
- Relative Potency [8]: 16.0

Compound: CCCC(=O)N[C@@H](Cc1ccc(OC(C)=O)cc1)C(=O)NCCCNCCCCNCCCN [Compound 11]
- potency compared with PhTX-343 or other analogues (in words): unchanged potencies

Compound: [N-]=[N+]=C(C(=O)NCCCC(=O)N[C@@H](Cc1ccc(O)cc1)C(=O)NCCCNCCCCNCCCN)C(F)(F)F [Compound 27]
- potency compared with PhTX-343 or other analogues (in words): only weakly active

Compound: [N-]=[N+]=Nc1ccc(C(=O)N[C@@H](Cc2ccc(O)cc2)C(=O)NCCCNCCCCNCCCNC(=O)[C@@H](N)CCCCN)cc1 [Compound 40, N-(p-azidobenzamide)-L-tyrosyl-spermine-L-lysine-triamide]
- IC50 [9]: 3.3 µM
- Relative Potency (Table 5, relative to PhTX-343): 7

Compound: CCCC(=O)N[C@@H](Cc1cc(I)c(O)c(I)c1)C(=O)NCCCNCCCCNCCCN [drawing 35]
- IC50 [3]: 5.3 µM
- Relative Potency [4]: 4.4

Compound: CCCC(=O)N[C@@H](Cc1c[nH]c2ccccc12)C(=O)NCCCNCCCCNCCCN [drawing 39]
- IC50 [3]: 2.5 µM
- Relative Potency [4]: 9.2

Compound: NCCCNCCCCNCCCNC(=O)[C@H](Cc1ccc(O)cc1)NC(=O)c1ccccc1 [drawing 47]
- IC50 [7]: 2.83 µM
- Relative Potency [8]: 8.2

Compound: NCCCNCCCCNCCCNC(=O)[C@H](Cc1ccc(O)cc1)NC(=O)Cc1ccccc1 [drawing 48]
- IC50 [7]: 12 µM
- Relative Potency [8]: 0.5

Compound: CCCC(=O)N[C@@H](Cc1ccc(O)cc1)C(=O)NCCCNCCCCNCCCNC(=O)CN [Compound 33]
- potency compared with PhTX-343 or other analogues (in words): potency was reduced

Compound: CCCC(=O)N[C@@H](Cc1ccc(O)cc1)C(=O)NCCCCNCCCN [drawing 24]
- IC50 [1]: 39 µM
- Relative Potency [2]: 0.6

Compound: CCCC(=O)N[C@@H](C)C(=O)NCCCNCCCCNCCCN [drawing 37]
- IC50 [3]: 45 µM
- Relative Potency [4]: 0.5

Compound: NCCCNCCCCNCCCNC(=O)[C@H](Cc1ccc(O)cc1)NC(=O)/C=C/c1ccccc1 [drawing 49]
- IC50 [7]: 2 µM
- Relative Potency [8]: 12.0

Compound: CCCCCCC(=O)N[C@@H](Cc1ccc(O)cc1)C(=O)NCCCNCCCCNCCCN [drawing 43]
- IC50 [7]: 10 µM
- Relative Potency [8]: 2.7

Compound: [N-]=[N+]=Nc1ccc(C(=O)N[C@@H](Cc2ccc(O)cc2)C(=O)NCCCNCCCCNCCCN)cc1 [Compound 26]
- potency compared with PhTX-343 or other analogues (in words): reasonably active

Compound: C/C=C/C=C/C(=O)N[C@@H](Cc1ccc(O)cc1)C(=O)NCCCNCCCCNCCCN [Compound 21]
- potency compared with PhTX-343 or other analogues (in words): very potent

Compound: CCCC(=O)N[C@@H](Cc1ccc(O)cc1)C(=O)NCCCNCCCCNCCCNC(=O)C(N)CCCCN (some centres unmarked) [drawing 61]
- IC50 [5]: 13 µM
- Relative Potency [6]: 1.8

Compound: CCCC(=O)N[C@@H](CC(C)C)C(=O)NCCCNCCCCNCCCN [Compound 14]
- potency compared with PhTX-343 or other analogues (in words): unchanged

Compound: C/C=C/C=C/C(=O)N[C@@H](Cc1ccc(O)cc1)C(=O)NCCCNCCCCNCCCN [drawing 45]
- IC50 [7]: 1.6 µM
- Relative Potency [8]: 14.0

Compound: CCCC(=O)N[C@@H](Cc1ccccc1)C(=O)NCCCNCCCCNCCCN [Compound 10]
- potency compared with PhTX-343 or other analogues (in words): increased potency about three-fold
- IC50 [3]: 6.7 µM
- Relative Potency [4]: 3.4

Compound: NCCCNCCCCNCCCNC(=O)[C@H](Cc1ccc(O)cc1)NC(=O)/C=C/c1ccccc1 [Compound 25]
- potency compared with PhTX-343 or other analogues (in words): greatly increased potency

Compound: CCCC(=O)N[C@@H](Cc1ccc(O)cc1)C(=O)NCCCNCCCCNCCCNC(=O)C(N)CCCCNC(=O)C(N)CCCCN (some centres unmarked) [Compound 37]
- potency compared with PhTX-343 or other analogues (in words): more active than compound 35

Compound: CCCCCCCCCC(=O)N[C@@H](Cc1ccc(O)cc1)C(=O)NCCCNCCCCNCCCNC(=O)[C@H](Cc1ccc(O)cc1)NC(=O)CCCCCCCCC
- IC50 (M) [10]: insol.

Compound: CC(=O)N[C@@H](Cc1ccc(O)cc1)C(=O)NCCCNCCCCNCCCN [drawing 42]
- IC50 [7]: 50 µM
- Relative Potency [8]: 0.7

Compound: CCCC(=O)N[C@@H](Cc1ccc(O)cc1)C(=O)NCCC[N+](C)(C)CCCC[N+](C)(C)CCC[N+](C)(C)C [drawing 29]
- IC50 [1]: 130 µM
- Relative Potency [2]: 0.2

Compound: CCCC(=O)N[C@@H](Cc1ccc(O)cc1)C(=O)NCCCNCCCCNCCCNC(=O)C(N)CCCCN (some centres unmarked) [Compound 35]
- potency compared with PhTX-343 or other analogues (in words): increased potency

Compound: CCCCCCC(=O)N[C@@H](Cc1ccc(O)cc1)C(=O)NCCCNCCCCNCCCN [Compound 19]
- potency compared with PhTX-343 or other analogues (in words): successive increases in potency

Compound: CCCC(=O)N[C@@H](Cc1ccc(O)cc1)C(=O)NCCCNCCCCNCCCNC(C)=O [Compound 32]
- potency compared with PhTX-343 or other analogues (in words): low potency

Compound: O=C(N[C@@H](Cc1ccc(O)cc1)C(=O)NCCCNCCCCNCCCNC(=O)[C@H](Cc1ccc(O)cc1)NC(=O)c1ccccc1)c1ccccc1
- IC50 [10]: 110 µM
- Relative Potency (Table 6, relative to PhTX-343): 0.2

Compound: CCCCC(CNCCCN)CNCCCCNC(=O)[C@H](Cc1ccc(O)cc1)NC(=O)CCC (some centres unmarked) [Compound 8, PhTX-(butyl)433]
- potency compared with PhTX-343 or other analogues (in words): increased potency by almost six-fold

Compound: NCCCNCCCCNCCCNC(=O)[C@H](Cc1ccc(O)cc1)NC(=O)CCCCC1SCC2NC(=O)NC21 (some centres unmarked) [Compound 30]
- IC50 (M) [7]: insol.

Compound: CCCC(=O)N[C@@H](Cc1ccc(O)cc1)C(=O)NCCCNCCCCNCCCNC(=O)CCCN [Compound 34]
- potency compared with PhTX-343 or other analogues (in words): potency was reduced

Compound: CCCC(=O)N[C@@H](Cc1ccc(O)cc1)C(N)=O [Compound 6, PhTX-0]
- potency compared with PhTX-343 or other analogues (in words): slightly more active than PhTX-4

Compound: CCCCCCC(=O)NCCCNCCCCNCCCN [Compound 48, Heptanoylspermine-amide]
- potency compared with PhTX-343 or other analogues (in words): low potencies

Compound: CCCC(=O)N[C@@H](CC(C)C)C(=O)NCCCNCCCCNCCCN [drawing 36]
- IC50 [3]: 23 µM
- Relative Potency [4]: 1.0

Compound: CCCCCCCCCC(=O)NCCCNCCCCNCCCNC(=O)CCCCCCCCC [Compound 52, bis-C10 -spermine]
- potency compared with PhTX-343 or other analogues (in words): as active as PhTX-343; also recorded: relatively high potencies

Compound: [N-]=[N+]=C(C(=O)NCCCC(=O)N[C@@H](Cc1ccc(O)cc1)C(=O)NCCCNCCCCNCCCN)C(F)(F)F [drawing 51]
- IC50 [7]: 290 µM
- Relative Potency [8]: 0.1

Compound: CCCC(=O)NCCCNCCCCNCCCNC(=O)CCC [Compound 50]
- potency compared with PhTX-343 or other analogues (in words): low potencies
- IC50 (Table 7, bis-acyl spermine analogues): 2300 µM
- Relative Potency (Table 7, bis-acyl spermine analogues, relative to PhTX-343): 0.1

Compound: [N-]=[N+]=Nc1ccc(C(=O)N[C@@H](Cc2cc(I)c(O)c(I)c2)C(=O)NCCCNCCCCNCCCNC(=O)[C@@H](N)CCCCN)cc1 [drawing 68]
- IC50 [9]: 1.8 µM
- Relative Potency (Table 5, relative to PhTX-343): 13

Compound: CCCC(=O)N[C@@H](Cc1ccc(OCc2ccccc2)cc1)C(=O)NCCCNCCCCNCCCN [Compound 12, N-butyryl-O-benzyl-L-tyrosine-spermineamide]
- potency compared with PhTX-343 or other analogues (in words): unchanged potencies
